Measured values as given in PMC10330721, “Chemo-enzymatic synthesis and biological activity evaluation of propenylbenzene derivatives” (Frontiers in Microbiology, 2023).
Converted amounts (≈) assume the structure as drawn. Read-outs that look alike come from different tables or passages of the source.

Legend:
[1] = Haemolytic activity assay; type: cell-based; conditions: human red blood cells (RBCs) from healthy donors, 37°C, read-out: Percentage of haemolysis
Procedure: This test is based on comparison of the cytotoxicity of all tested compounds in human red blood cells (RBCs) with that in a control group. RBCs for this method were obtained from a blood center from examined and healthy donors. The compounds were tested at 10, 20, 40, 60, 80, and 100 μM concentrations. The control sample contained only ethanol in the same volume as the test samples. […] The samples were incubated at 37°C for 1 h. Then, the absorbance at 540 nm was measured using a UV–Vis spectrophotometer (Specord 40, Analytik Jena, Jena, Germany). The haemolytic activity of the compounds was determined as the ratio of the absorbance of haemoglobin in the test samples to that in completely haemolyzed cells multiplied by 100%.

C. albicans 636/20 = test: Fungistatic activity assay, broth microdilution; type: cell-based; conditions: Candida albicans, 636/20, 24 h
Procedure: (§1) Fungistatic activity was determined using Candida albicans ATCC 90028 from the American Type Culture Collection (ATCC, Manassas, VA, United States), and clinical isolates, C. albicans 636/20, C. albicans 595/20, and C. albicans 38 obtained from Wrocław Medical University, Wrocław, Poland.
(§2) All compounds were tested for biological activity against C. albicans ATTC 90028, C. albicans 636/20, C. albicans 595/20, and C. albicans 38 using the broth microdilution method. YPD medium (20 g glucose, 20 g Bacto Peptone, 10 g yeast extract, and 1 L of distilled water, pH 6.5) was used for the tests. The compound solutions were prepared in DMSO and diluted in YPD to obtain final concentrations in the range of 10–250 μg/mL. One hundred microlitres of each solution was pipetted into the wells of a 96-well microtiter plate. The inoculum was standardized to 0.5 McFarland standard and then diluted to obtain a final suspension with a cell density of 0.5–2.5 × 10^3 CFU/mL. The inoculum size was 100 μL. The positive control comprised DMSO added in the same concentration as the tested compounds in the inoculum, whereas the negative control consisted of DMSO diluted in the broth without the addition of inoculum. The microtiter plates were incubated in a Biosan PST-60 HL Plate Shaker-Thermostat (Riga, Latvia) at 35°C under shaking at 1,000 rpm for 24 h.

C. albicans 595/20 = test: Fungistatic activity assay, broth microdilution; type: cell-based; conditions: Candida albicans
Procedure: as §1, §2

Caco-2 cells = test: Resazurin-based viability assay; type: cell-based, human; conditions: for Effect on Caco-2 proliferation / viability (in words): 24 h, 1, 50 and 200 μg/mL
Procedure: (§3) The human HepG2 and Caco-2 cell lines were obtained from the American Type Culture Collection (HB-8065™ and HTB-37™) and the MG-63 cell line was obtained from the European Collection of Authenticated Cell Cultures (Merck, Poznań, Poland). HepG2 cells were cultured in Dulbecco’s modified Eagle’s Medium - low glucose (Merck) supplemented with 10% foetal bovine serum (FBS) (Merck). Caco-2 cells were cultured in Dulbecco’s modified Eagle’s medium - high glucose (Merck) supplemented with 10% FBS, 2% HEPES buffer (Thermo Fisher Scientific, Warszawa, Poland), 1% Penicillin–Streptomycin-Amphotericin B Solution (100×, Merck), 1% MEM solution (100×, Thermo Fisher Scientific), and 1% Gentamycin Solution (10 mg/mL, Merck). MG-63 cells were cultured in Minimum Essential Medium (Merck) supplemented with 10% FBS. All cells were cultured in an atmosphere of 5% CO2 at 37°C.
(§4) HepG2, Caco-2, and […] were seeded in 96-well plates at 20,000 cells per well, and MG-63 cells at 10,000 cells per well, as described previously ([Marycz et al., 2012]; [Kornicka et al., 2017]). The tested compounds were dissolved in ethanol at 10 mg/mL. The concentrations were then adjusted to 1, 50, and 200 μg/mL in culture medium. Four controls were prepared: no ethanol added, and 0.01, 0.5, and 2% EtOH. The cells were treated with the compounds for 24 h. Then, cell viability was evaluated using the resazurin-based assay kit (TOX8), as described previously ([Grzesiak et al., 2011]; [Marycz et al., 2018]). The culture medium was replaced with medium containing 10% resazurin dye. The cells were incubated at 37°C in an atmosphere of 5% CO2 for 2 h. Absorbance levels were measured spectrophotometrically (Epoch) at a wavelengths of 600 nm for resazurin and 690 nm as a reference.

RBCs membrane = test: Fluorescence spectroscopy of the RBCs membrane (DPH probe anisotropy); type: cell-based, human; conditions: for Fluorescence anisotropy of the DPH probe: membranes of RBCs, 37 °C; for Change in DPH anisotropy / RBCs membrane fluidity (in words): RBCs, 20, 60 and 100 μM
Procedure: Using the DPH probe, the anisotropy values of cell membranes of RBCs modified with the test compounds were measured. RBCs for this analysis were prepared according to the method described in subsection 2.5.3. Then, the DPH probe was added to RBCs with a haematocrit of 0.2%. The final concentration of the probe in the sample was 1.3 μM. The mixture was incubated protected from light at 37°C for 30 min. Then, the compounds dissolved in ethanol were added. The compounds were tested at 20, 60, and 100 μM concentrations. Samples with compounds and control samples with alcohol of the appropriate concentration were incubated at 37°C for 1 h. Measurements in triplicate were made in quartz cuvettes using a CARY Eclipse fluorimeter (Varian, San Diego, CA, United States) at 37°C. The excitation wavelength for the DPH probe is λexc = 360 nm and the emission wavelength is λem = 426 nm.

C. albicans strains = test: Fungistatic activity assay, broth microdilution, values given over several strains; type: cell-based, Candida albicans; conditions: Candida albicans
Procedure: as §1, §2

MG63 cells = test: Resazurin-based viability assay; type: cell-based, human; conditions: for Effect on MG63 proliferation / viability (in words): 24 h, 1, 50 and 200 μg/mL
Procedure: as §3, with “HepG2” for “The human HepG2 and Caco-2 cell lines were obtained from the American Type Culture Collection (HB-8065™ and HTB-37™) and the MG-63 cell line was obtained from the European Collection of Authenticated Cell Cultures (Merck, Poznań, Poland). HepG2”
The tested compounds were dissolved in ethanol at 10 mg/mL. The concentrations were then adjusted to 1, 50, and 200 μg/mL in culture medium. Four controls were prepared: no ethanol added, and 0.01, 0.5, and 2% EtOH. The cells were treated with the compounds for 24 h. […] The culture medium was replaced with medium containing 10% resazurin dye. The cells were incubated at 37°C in an atmosphere of 5% CO2 for 2 h. Absorbance levels were measured spectrophotometrically (Epoch) at a wavelengths of 600 nm for resazurin and 690 nm as a reference.

HepG2 cells = test: Resazurin-based viability assay; type: cell-based, human
Procedure: as §3, §4

C. albicans ATTC18804 = test system: C. albicans ATTC18804; parameters: method as in Kubo et al., 1993; conditions: C. albicans ATTC18804 ref Kubo et al., 1993; cited from earlier work

SMILES	hemolysis at 1 h, 10 µM [1] [%]	hemolysis at 1 h, 20 µM [1] [%]	hemolysis at 1 h, 40 µM [1] [%]	hemolysis at 1 h, 60 µM [1] [%]	hemolysis at 1 h, 80 µM [1] [%]	hemolysis at 1 h, 100 µM [1] [%]	Effect on Caco-2 proliferation / viability (in words) (Caco-2 cells)	Fluorescence anisotropy of the DPH probe (RBCs membrane; 20 µM)	Fluorescence anisotropy of the DPH probe (RBCs membrane; 60 µM)	Fluorescence anisotropy of the DPH probe (RBCs membrane; 100 µM)	Effect on MG63 proliferation / viability (in words) (MG63 cells)	Change in DPH anisotropy / RBCs membrane fluidity (in words) (RBCs membrane)	other results
CC(O)C(O)c1ccc2c(c1)OCO2 (stereo not shown) [1b, 1-(1,3-benzodioxol-5-yl)propane-1,2-diol]	2.28 ± 0.251	1.86 ± 0.293	1.98 ± 0.272	1.88 ± 0.251	2.39 ± 0.349	2.58 ± 0.321	strongest inhibition	0.247 ± 0.018	0.274 ± 0.036	0.252 ± 0.012	–	–	MIC50 (C. albicans 636/20): 177 µg/mL (≈ 902 µM); MIC50 (C. albicans 595/20; 595/20, 24 h): 107 µg/mL (≈ 545 µM)
CC(O)C(=O)c1ccc2c(c1)OCO2 (stereo not shown) [1c, 1-(1,3-benzodioxol-5-yl)-2-hydroxypropan-1-one]	1.46 ± 0.08	1.17 ± 0.02	1.81 ± 0.302	1.85 ± 0.027	1.41 ± 0.295	1.51 ± 0.576	–	0.260 ± 0.011	0.267 ± 0.019	0.277 ± 0.078	suppressed the proliferation	–	MIC50 (C. albicans strains; read-out: MIC50 (over three strains)): 178 to 200 µg/mL (≈ 917 to 1030 µM); MIC50 (C. albicans 636/20): > 250 µg/mL
COc1ccc(C(O)C(C)O)cc1 (stereo not shown) [3b, 1-(4-methoxyphenyl)propane-1,2-diol]	2.45 ± 0.509	2.98 ± 0.153	1.9 ± 0.209	2.29 ± 0.635	2.4 ± 0.209	2.6 ± 0.265	strongest inhibition	0.272 ± 0.019	0.249 ± 0.083	0.262 ± 0.056	suppressed the proliferation	an increase in anisotropy at lower concentrations and a decrease at higher concentrations	MIC50 (C. albicans strains; C. albicans 595/20, 636/20 and 38, read-out: MIC50 (over three strains)): 47 to 76 µg/mL (≈ 258 to 417 µM); MIC50 (C. albicans 595/20; C. albicans 595/20, 24 h, 35°C, tested 10–250 μg/mL, read-out: MIC50): 47 µg/mL (≈ 258 µM); Effect on HepG2 proliferation / viability (in words) (HepG2 cells; 24 h, 1, 50 and 200 μg/mL): significantly increased the proliferative potential
CC=Cc1ccc(OC)c(OC)c1 [4a, 1,2-dimethoxy-4-prop-1-en-1-yl benzene]	1.76 ± 0.152	1.48 ± 0.173	1.67 ± 0.195	1.58 ± 0.18	2.48 ± 0.152	1.79 ± 0.159	–	0.264 ± 0.004	0.261 ± 0.008	0.269 ± 0.007	promoted MGC63 proliferation	–	MIC50 (C. albicans strains; read-out: MIC50 (over all tested strains)): 39 to 67 µg/mL (≈ 219 to 376 µM); MIC (C. albicans ATTC18804): 400 µg/mL (≈ 2240 µM)
COc1ccc(C(O)C(C)O)cc1OC (stereo not shown) [4b, 1-(3,4-dimethoxyphenyl)propane-1,2-diol]	1.64 ± 0.127	1.52 ± 0.375	1.42 ± 0.074	1.2 ± 0.395	1.19 ± 0.04	2.06 ± 0.536	strongest inhibition	0.289 ± 0.004	0.228 ± 0.095	0.290 ± 0.003	–	increase in anisotropy	MIC50 (C. albicans strains; C. albicans 636/20, 595/20, 38 and ATTC90028, read-out: MIC50 (over all tested strains)): 37 to 63 µg/mL (≈ 174 to 297 µM)
COc1ccc(C(=O)C(C)O)cc1OC (stereo not shown) [4c, 1-(3,4-dimethoxyphenyl)-2-hydroxypropan-1-one]	1.483 ± 0.007	1.93 ± 0.228	2.1 ± 0.395	1.77 ± 0.342	2.02 ± 0.047	2.445 ± 0.013	–	0.257 ± 0.014	0.243 ± 0.019	0.263 ± 0.008	promoted MGC63 proliferation	a decrease in anisotropy	–
COc1cc(C(O)C(C)O)ccc1O (stereo not shown) [5b, 1-(4-hydroxy-3-methoxyphenyl)propane-1,2-diol]	1.27 ± 0.094	1.55 ± 0.101	1.52 ± 0.181	1.62 ± 0.174	2.58 ± 0.288	1.98 ± 0.308	–	0.268 ± 0.025	0.277 ± 0.003	0.272 ± 0.058	suppressed the proliferation	–	Effect on MG63 proliferative activity (in words) (MG63 cells; 24 h, 1 μg/mL): induced the proliferative activity; Effect on MG63 proliferative activity / viability (in words) (MG63 cells; 24 h, 50 μg/mL): significantly increased cell viability; Effect on HepG2 proliferative activity (in words) (HepG2 cells; 24 h, 1 μg/mL): induced the proliferative activity; Effect on Caco-2 proliferative activity (in words) (Caco-2 cells; 24 h, 1 μg/mL): induced the proliferative activity
